The text below walks through data of US7288528B2, “Aromatic fluoroglycoside derivatives, medicaments containing these compounds, and the use thereof” (Sanofi-Aventis Deutschland GmbH, priority 2002, dated 2007).

The structures appear in SMILES notation. pIC50: −log10 of the molar value.

This experiment concerns the target T1, SGLT (Oryctolagus cuniculus, UniProt P11170).
T1 construct: To prepare brush border membranes from rabbit small intestine, rabbits were sacrificed; from tissue; host or cells: rabbit small intestine mucosa, brush border membrane vesicles (Mg2+ precipitation method)
T1 sequence (P11170 1-662): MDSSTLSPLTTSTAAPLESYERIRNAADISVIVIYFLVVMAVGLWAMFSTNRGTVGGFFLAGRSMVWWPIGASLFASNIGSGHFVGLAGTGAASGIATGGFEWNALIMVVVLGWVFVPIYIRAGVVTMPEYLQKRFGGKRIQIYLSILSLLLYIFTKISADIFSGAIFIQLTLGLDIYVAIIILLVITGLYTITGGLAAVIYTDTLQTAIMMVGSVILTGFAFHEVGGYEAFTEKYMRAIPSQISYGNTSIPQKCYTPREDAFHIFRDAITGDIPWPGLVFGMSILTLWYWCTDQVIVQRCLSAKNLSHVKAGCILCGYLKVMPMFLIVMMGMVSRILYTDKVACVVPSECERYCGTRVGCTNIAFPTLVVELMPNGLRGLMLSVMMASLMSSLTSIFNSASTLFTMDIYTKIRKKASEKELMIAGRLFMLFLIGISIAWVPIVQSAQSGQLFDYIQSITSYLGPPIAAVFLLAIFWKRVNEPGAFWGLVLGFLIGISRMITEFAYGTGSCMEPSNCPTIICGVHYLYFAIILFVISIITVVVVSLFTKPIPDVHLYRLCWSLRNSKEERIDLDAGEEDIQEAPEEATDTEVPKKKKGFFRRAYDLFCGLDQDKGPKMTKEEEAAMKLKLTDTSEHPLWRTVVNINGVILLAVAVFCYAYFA
As to the kind of experiment: Glucose uptake by brush border membrane vesicles (transport assay, membrane filtration method). It counts as biochemical. The conditions noted are these: uptake of 10 μM [14C]D-glucose into rabbit small intestine brush border membrane vesicles, 30° C., 15 seconds.
`Cc1cc(O)c(C(=O)CCc2ccc3occc3c2)c(OC2OC(CO)C(F)C(O)C2O)c1` (single isomer, unassigned) [Example 4]: the negative logarithm of the IC50 (pIC50) (as a rule, −log10 of the IC50, conventionally taken in molar units) was 5.82.
With `Cc1cc(O)c(C(=O)CCc2ccc3occc3c2)c(OC2OC(CO)C(F)C(O)C2O)c1` (single isomer, unassigned) [Example 5] the figure was 6.40; with `COc1ccc(Cc2ccccc2OC2OC(CO)C(F)C(O)C2O)cc1` (centres unmarked) [Example 1], 6.30; with `OCC1OC(Oc2ccccc2Cc2ccccc2)C(O)C(O)C1F` (centres unmarked) [Example 2], 6.15.
With `COc1ccc(CCC(=O)c2c(O)cc(C)cc2OC2OC(CO)C(F)C(O)C2O)cc1` (centres unmarked) [Example 7] the figure was 6.05.
